Results taken from US20110190142A1, “DETERMINATION OF RENIN-PRORENIN RECEPTOR ACTIVITY” (Charite- Universitatsmedizin Berlin, priority 2006, published 2011).

Assays:
Format in all cases: cell-based, human
[1] = system: renin/prorenin receptor (RER); assay: PI3K-p85α mRNA by quantitative real-time PCR after renin/prorenin stimulation of HEK293 cells; conditions: HEK293 cells, regardless of PLZF expression level
Protocol: (§1) HEK293 cells were seeded in 24-well plates and transfected with either 100 ng of pCEP4-PLZF-myc expression vector, 50 ng of indicated pGL3-basic construct and 10 ng of phRL-null plasmid (for luciferase assay), or 100 ng of pCEP4-PLZF-myc alone (for PCR experiments) per well as described above. siRNA transfection, renin stimulation and determination of reporter activity were performed as described above, except for an exceeded renin stimulation period of 3 hours.
RNA isolation and cDNA synthesis were performed as described above. qPCR was performed applying a SYBR Green I reaction mix and run on a Stratagene Mx3000P (Stratagene, La Jolla, Calif., USA) using the following primers: […]
Data represents the mean expression level±standard deviation (standardized to 18S rRNA expression) calculated according to the ddCT method of at least three independent measurements. Equality of PCR efficiencies has been verified applying the program LinRegPCR (Ramakers et al. 2003) and ANOVA testing.
(§2) For all cell culture studies immortalized human epithelial kidney cells (HEK293 cells) were used. […] Additional inhibition with 1 μM aliskiren was performed as indicated. 1 hour after pre-treatment with losartan±aliskiren cells were stimulated with either 5 nM renin, 5 nM prorenin, or the respective vehicle. Cells were harvested for mRNA expression analysis or determination of viable cell number and apoptosis after 3 or 24 hours, respectively. These experimental procedures have been described in detail previously (Schefe et al., 2006). All experiments were performed in independent triplicates.

[2] = system: renin/prorenin receptor (RER); assay: PI3K-p85α promoter luciferase reporter assay under renin stimulation; conditions: PLZF-overexpressing HEK293 cells
Protocol: The indicated cell types were seeded on day 1 in 12-well plates. 100 ng of indicated pGL3-basic constructs (encoding firefly luciferase) and 20 ng of phRL-null plasmid (encoding humanized Renilla luciferase for standardization of promoter activity; Promega) per well were transfected on day 2 at 60-80% confluency using GeneJuice (Merck Biosciences, Bad Soden, Germany) according to the manufacturer's protocol. Cells were harvested 48 hours after transfection using Passive Lysis Buffer (Promega). Reporter activities were measured in a Pharmingen Monolight 3010 luminometer (BD Biosciences, Erembodegem, Belgium) using the Dual-Luciferase Reporter Assay System (Promega). Promoter activity is expressed as relative luciferase activity (RLA) (Funke-Kaiser et al., 2003a). RLA data represent the mean±standard deviation of at least three single, parallel transfection experiments.
as §1

[3] = system: renin/prorenin receptor (RER); assay: Renin- and prorenin-mediated RER activation (RER-PLZF pathway) in HEK293 cells with aliskiren or siRNA
Protocol: as §2

[4] = system: RER protein; assay: Down-regulation of RER protein by siRNA (Western blot, densitometry); conditions: Western blot of total cell lysate
Protocol: For analysis of subcellular localization of RER, 9 μg (membrane) and 12 μg (cytosolic) protein were loaded per lane, separated in a 10% SDS-PAGE and transferred to a nitrocellulose membrane. Western blot analysis was performed with an antibody against human RER (corresponding ATP6AP2; goat polyclonal, ab5959, Abcam, Cambridge, UK) at a dilution of 0.5 μg/ml. Horseradish peroxidase-conjugated anti-goat antibody (rabbit polyclonal; 1:2,500; DAKO, Hamburg, Germany) was used as secondary antibody.
For PLZF translocation experiments HEK293 cells were seeded on day 1 in 6-well plates. 250 ng of pCEP4-PLZF-myc expression vector per well were transfected on day 2 at 40-60% confluency using GeneJuice (Merck Biosciences, Bad Soden, Germany) according to the manufacturer's protocol. On day 3 the cells were transfected with 50 nM siRNA against the RER [5′-GCUCCGUAAUCGCCUGUUU (sense strand), (SEQ ID No. 38); 5′-AAACAGGCGAUUACGGAGC (antisense strand), (SEQ ID No. 39)] or GFP control siRNA (Eurogentec, Seraing, Belgium) using jetSI-ENDO (Eurogentec) following the standard procedure. […] Chemoluminescence was detected with ECL (Amersham, München, Germany), and subsequent exposition to Hyperfilm (Amersham).

[5] = system: RER mRNA; assay: Down-regulation of RER mRNA by siRNA (real-time PCR); conditions: HEK293 cells
Protocol: For PLZF translocation experiments HEK293 cells were seeded on day 1 in 6-well plates. 250 ng of pCEP4-PLZF-myc expression vector per well were transfected on day 2 at 40-60% confluency using GeneJuice (Merck Biosciences, Bad Soden, Germany) according to the manufacturer's protocol. On day 3 the cells were transfected with 50 nM siRNA against the RER [5′-GCUCCGUAAUCGCCUGUUU (sense strand), (SEQ ID No. 38); 5′-AAACAGGCGAUUACGGAGC (antisense strand), (SEQ ID No. 39)] or GFP control siRNA (Eurogentec, Seraing, Belgium) using jetSI-ENDO (Eurogentec) following the standard procedure. On day 5, after 24 hours of starving in serum-free medium, cells were stimulated with 10 nM human recombinant renin (mammalian expression; kind gift from Dominik N. Müller, MDC Berlin) or vehicle (0.1% DMSO in PBS) for 2 hours. Western blot was performed with anti-c-myc antibody (mouse monoclonal, 9B11; 1:2,000; Cell Signalling) and horseradish peroxidase-conjugated anti-mouse antibody (rabbit polyclonal; 1:2,500; DAKO). Chemoluminescence was detected with ECL (Amersham, München, Germany), and subsequent exposition to Hyperfilm (Amersham). […]

Compound	influence on renin induction of PI3K-p85α mRNA [1]	influence on renin-induced increase in PI3K-p85α promoter activity [2]	influence on transcriptional and cellular effects of prorenin stimulation ([3]; siRNA 24 hours before prorenin)	RER protein reduced to (densitometric measurement, compared to control) [4]	RER mRNA repressed to ([5]; 50 nM siRNA)	average reduction of RER mRNA ([5]; siRNA transfected 24 hours before stimulation)	influence on the effects of renin and prorenin (RER and PI3K-p85α transcription, proliferation, apoptosis) ([3]; pre-treatment with 1 μM aliskiren)
siRNA against the RER: siRNA 5′-GCUCCGUAAUCGCCUGUUU (sense), 5′-AAACAGGCGAUUACGGAGC (antisense), SEQ ID No. 38/39 (listed as RNA, chemistry not given here; listed as Homo sapiens)	abolished this induction	abolished	completely abolished	less than 10%	29.8±5.2%	81.1±4.5%	
COCCCOc1cc(C[C@@H](C[C@H](N)[C@@H](O)C[C@H](C(=O)NCC(C)(C)C(N)=O)C(C)C)C(C)C)ccc1OC [aliskiren]							not affected
